Counter-ions that a name gives are not always drawn.
molecular target: Sphingosine 1-phosphate receptor 3 (Homo sapiens, UniProt Q99500); assay: nonspecific agonism in S1P3 NFAT-BLA cells – counter-screen for 5HT1E agonist project, dose response (AID 730)
Sequence (Q99500 whole entry): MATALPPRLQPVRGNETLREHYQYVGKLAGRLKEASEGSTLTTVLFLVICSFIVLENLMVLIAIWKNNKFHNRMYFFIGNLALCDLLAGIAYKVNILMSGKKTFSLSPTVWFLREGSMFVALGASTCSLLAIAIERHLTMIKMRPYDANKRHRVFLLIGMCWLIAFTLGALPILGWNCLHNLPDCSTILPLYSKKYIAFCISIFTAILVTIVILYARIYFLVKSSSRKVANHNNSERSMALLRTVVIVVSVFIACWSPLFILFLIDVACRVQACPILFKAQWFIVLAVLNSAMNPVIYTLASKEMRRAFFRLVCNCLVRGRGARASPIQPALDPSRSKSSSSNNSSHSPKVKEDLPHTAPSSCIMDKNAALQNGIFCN

Row | Structure (SMILES) | EC50 [µM]
1 | Cc1cc(C(C)(C)C)c(O)c(C)c1CC1=NCCN1 [SMR000059324] | > 40
2 | c1ccc(N2CCN(Cc3cn4cccnc4n3)CC2)cc1 | > 40
3 | COc1ccc(CN2CCN(c3ccccc3F)CC2)c(OC)c1 | > 40
4 | CN1CC=C(c2c[nH]c3ccccc23)CC1 [MLS000120058] | > 40
5 | COc1ccc2[nH]cc(CCN(C)C)c2c1 [3-(2-DIMETHYLAMINOETHYL)-5-METHOXYINDOLE] | > 40
6 | CCOC(=O)C1CCN(C(=O)Cc2c(C(=O)O)n(C)c3ccccc23)CC1 [3-{2-[4-(ethoxycarbonyl)piperidin-1-yl]-2-oxoethyl}-1-methyl-1H-indole-2-carboxylic acid] | > 40
7 | NCCc1c[nH]c2ccc(F)cc12 [MLS000047815] | > 40
8 | Cc1noc(C)c1COc1ccc(C(=O)OC(C)C(=O)Nc2ccc(N3CCOCC3)cc2)cc1 (stereo not given) [[1-[(4-morpholin-4-ylphenyl)amino]-1-oxidanylidene-propan-2-yl] 4-[(3,5-dimethyl-1,2-oxazol-4-yl)methoxy]benzoate] | > 40
9 | CCOC(=O)c1c(C)nc(-c2ccccc2)nc1NC(=O)CC [ethyl 4-methyl-2-phenyl-6-(propionylamino)pyrimidine-5-carboxylate] | > 40
10 | Cc1cccc(NC(=O)C2CCCN(C(=O)Nc3ccccc3)C2)c1C (stereo not given) [SMR000006943] | > 40
11 | Cc1cccc(N2CCN(C(=O)Cc3c(C(=O)O)[nH]c4ccc(Cl)cc34)CC2)c1C [5-chloranyl-3-[2-[4-(2,3-dimethylphenyl)piperazin-1-yl]-2-oxidanylidene-ethyl]-1H-indole-2-carboxylic acid] | > 40
12 | Cc1[nH]c2c(Cl)cccc2c1CCN | > 40
13 | CC(=O)Nc1ccc(S(=O)(=O)N(C)c2ccc(O)cc2)cc1 [MLS000081936] | > 40
14 | CCOC(=O)c1oc2ccccc2c1NC(=O)c1cc(OC)cc(OC)c1 [ethyl 3-[(3,5-dimethoxybenzoyl)amino]-1-benzofuran-2-carboxylate] | > 40
15 | CN(C)CCCn1c(NC(=O)C2CCCCC2)nc2ccccc21 | > 40
16 | CN1CCN2c3ccccc3Cc3ccccc3C2C1 (stereo not given) [MIANSERIN HYDROCHLORIDE] | > 40
17 | COC(=O)CC(=O)Cc1nc(N)nc(Nc2ccc(C)c(C)c2)n1 [4-[4-amino-6-(3,4-dimethylanilino)-1,3,5-triazin-2-yl]-3-oxobutanoic acid methyl ester] | > 40
18 | CCN1CC=C(c2c[nH]c3ccccc23)CC1 [MLS000093713] | > 40
19 | CC(CCc1ccccc1)NC(=O)CSc1nc(N)cc(N)n1 (stereo not given) [MLS000254508] | > 40
20 | COc1cc(CN2CCN(c3cccc(C)c3C)CC2)cc(OC)c1O [4-[[4-(2,3-dimethylphenyl)piperazin-1-yl]methyl]-2,6-dimethoxy-phenol] | > 40
21 | O=C(NCc1ccccc1)NC1(C(=O)N2CCCC2)CCCCC1 [1-Benzyl-3-[1-(pyrrolidine-1-carbonyl)-cyclohexyl]-urea] | > 40
22 | COc1ccc(N(CC(=O)NC2CCCC2)C(=O)Cn2nnc(-c3ccc(C)cc3)n2)cc1OC [N-[2-(cyclopentylamino)-2-oxoethyl]-N-(3,4-dimethoxyphenyl)-2-[5-(4-methylphenyl)tetrazol-2-yl]acetamide] | > 40
23 | CCc1ccc(NC(=O)Cn2c(SC)nc3ccccc32)cc1 [N-(4-ethylphenyl)-2-[2-(methylthio)-1-benzimidazolyl]acetamide] | > 40
24 | Cc1[nH]c2c(C(F)(F)F)cccc2c1CCN [2-[2-methyl-7-(trifluoromethyl)-1H-indol-3-yl]ethanamine;hydrochloride] | > 40
25 | O=C(COC(=O)CCC1CCCC1)Nc1ccc(Cl)cn1 [[2-[(5-chloropyridin-2-yl)amino]-2-oxoethyl] 3-cyclopentylpropanoate] | > 40

Row | Structure (SMILES) | EC50 [µM]
26 | C[N+]1=C2CCCCCN2C(O)(c2ccccc2)C1 (stereo not given) [MLS000048587] | > 40
27 | CCc1nn(C(C)C(=O)NCCN2CCN(c3cccc(C)c3C)CC2)c(=O)c2cc3occc3n12 (stereo not given) [SMR000029605] | > 40
28 | C1=C(c2c[nH]c3ccccc23)CCNC1 | > 40
29 | CCN(CC)c1nc(N2CCOCC2)c(C#N)c2c1CN(C)CC2 [1-(diethylamino)-7-methyl-3-morpholin-4-yl-6,8-dihydro-5H-2,7-naphthyridine-4-carbonitrile] | > 40
30 | c1ccc2sc(C3CCCNC3)nc2c1 (stereo not given) [SMR000067014] | > 40
31 | CN(C)CCOC(=O)c1cn(Cc2ccccc2)c2ccccc12 [2-(dimethylamino)ethyl 1-(phenylmethyl)indole-3-carboxylate;hydrochloride] | > 40
32 | O=C(O)C1CCCCC1C(=O)NCCc1c[nH]c2ccccc12 (stereo not given) [2-[2-(1H-indol-3-yl)ethylcarbamoyl]cyclohexane-1-carboxylic acid] | > 40
33 | Cc1[nH]c2ccccc2c1C1=CCNCC1 [MLS000045807] | > 40
34 | O=C(Nc1cccc(-c2cn3ccsc3n2)c1)c1ccccc1 [N-[3-(6-imidazo[2,1-b]thiazolyl)phenyl]benzamide] | > 40
35 | Cn1c(-c2ccccc2)cnc1SCc1nc(O)c2ccccc2n1 [MLS000077265] | > 40
36 | CCOC(=O)C1C(C)=NC(=O)NC1c1ccc(OCC(=O)Nc2ccccc2)c(OC)c1 (stereo not given) [SMR000093032] | > 40
37 | CCCCc1ccc2[nH]cc(CCN)c2c1 | > 40
38 | CC1CN(c2nnnn2-c2ccccc2)CC(C)O1 (stereo not given) [SMR000109556] | > 40
39 | O=S(=O)(c1cccc(Cl)c1)N1CCCC1 [MLS000063405] | > 40
40 | CCOC(=O)C1CCN(C(c2cccnc2)c2c(NC(=O)c3ccco3)sc(C)c2C)CC1 (stereo not given) [SMR000019649] | > 40
41 | CN1CCN(C(N=O)c2nonc2N)CC1 (stereo not given) | > 40
42 | CCCCN(CC)Cc1ccc(CNC(=O)Nc2ccc(OC)cc2OC)o1 [1-[[5-[[butyl(ethyl)amino]methyl]furan-2-yl]methyl]-3-(2,4-dimethoxyphenyl)urea] | > 40
43 | CSc1nc2ccc(NC(=O)C3CCCO3)cc2s1 (stereo not given) [N-[2-(methylthio)-1,3-benzothiazol-6-yl]-2-oxolanecarboxamide] | > 40
44 | CNCCc1c[nH]c2ccccc12 [N-OMEGA-METHYLTRYPTAMINE] | > 40
45 | CCCCN(C)CCCNC(=O)Cn1c(=O)sc2ccccc21 [N-{3-[butyl(methyl)amino]propyl}-2-(2-oxo-1,3-benzothiazol-3(2H)-yl)acetamide] | > 40
46 | Cc1cc(C(C)(C)C)cc(C)c1CC1=NCCN1 [SMR000058526] | > 40
47 | CC[C@@H](CO)NC(=O)[C@@H]1C=C2c3cccc4c3c(cn4C)C[C@H]2N(C)C1 [METHYSERGIDE MALEATE] | > 40
48 | CCOC(=O)c1cc2ccc(OC(=O)c3ccco3)cc2oc1=O [ethyl 7-(2-furoyloxy)-2-oxo-2H-chromene-3-carboxylate] | 10.5
49 | Cc1c(CN2CCN(c3cccc(C(F)(F)F)c3)CC2)c(=O)n(-c2ccccc2)n1C | > 40
50 | Cn1cc(C(Cc2ccccc2)N=O)c2ccccc21 (stereo not given) [1-(1-methyl-3-indolyl)-2-phenylethanone oxime] | > 40

From BindingDB's records for doi:10.7270/Q2PN941W (The Scripps Research Institute Molecular Screening Center, 2007)
